Test results published in article PMC12846068, “Insights into Transport Function of the Murine Organic Anion-Transporting Polypeptide OATP1B2 by Comparison with Its Rat and Human Orthologues” (Toxics, 2025).
Like-named read-outs stand apart in the source and are kept apart here.

Tests used:
[1] = target: T1, hOATP1B1 (Homo sapiens, UniProt Q9Y6L6); assay: cis-inhibition of hOATP1B1-mediated E1S uptake in HEK293 cells; assay type: cell-based; set-up: expressed in transfected cells; host or cells: HEK-293, stably transfected; conditions: 10 µM drug, 0.01 µM [3H]-E1S, 1 min
T1 sequence (Q9Y6L6 1-691): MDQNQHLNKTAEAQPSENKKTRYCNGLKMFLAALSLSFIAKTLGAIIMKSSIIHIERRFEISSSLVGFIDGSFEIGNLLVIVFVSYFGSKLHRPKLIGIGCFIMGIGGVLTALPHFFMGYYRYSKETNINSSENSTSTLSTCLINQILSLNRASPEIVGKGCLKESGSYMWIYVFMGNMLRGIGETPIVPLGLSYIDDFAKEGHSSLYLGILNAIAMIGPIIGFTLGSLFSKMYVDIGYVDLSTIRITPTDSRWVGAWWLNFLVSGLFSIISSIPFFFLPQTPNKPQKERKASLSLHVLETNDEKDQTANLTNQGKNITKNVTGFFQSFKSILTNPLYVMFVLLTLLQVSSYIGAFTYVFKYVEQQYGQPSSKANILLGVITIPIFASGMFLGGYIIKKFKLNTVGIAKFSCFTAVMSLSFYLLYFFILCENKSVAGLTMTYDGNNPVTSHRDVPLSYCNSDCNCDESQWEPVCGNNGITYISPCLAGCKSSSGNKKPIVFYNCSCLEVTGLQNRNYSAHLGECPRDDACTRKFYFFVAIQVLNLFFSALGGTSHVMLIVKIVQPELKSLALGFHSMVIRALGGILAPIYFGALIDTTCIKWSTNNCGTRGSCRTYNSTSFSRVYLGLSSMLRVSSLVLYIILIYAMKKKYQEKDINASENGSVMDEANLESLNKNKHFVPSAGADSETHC
Protocol: (§1) Inhibitory effects were calculated as a percentage of the net-uptake rates.
(§2) The means ± average deviation (AD, for N = 2) were calculated from two experiments on two different days. The significance as a p-value was calculated using Student’s t-test in Microsoft Excel.

[2] = target: T2, rOATP1B2 (Rattus norvegicus, UniProt Q9QZX8); assay: cis-inhibition of rOATP1B2-mediated E1S or TCA uptake in HEK293 cells; assay type: cell-based
T2 construct: The full-length mOATP1B2 and rOATP1B2 consist of 689 and 678 amino acids
T2 sequence (Q9QZX8 1-687): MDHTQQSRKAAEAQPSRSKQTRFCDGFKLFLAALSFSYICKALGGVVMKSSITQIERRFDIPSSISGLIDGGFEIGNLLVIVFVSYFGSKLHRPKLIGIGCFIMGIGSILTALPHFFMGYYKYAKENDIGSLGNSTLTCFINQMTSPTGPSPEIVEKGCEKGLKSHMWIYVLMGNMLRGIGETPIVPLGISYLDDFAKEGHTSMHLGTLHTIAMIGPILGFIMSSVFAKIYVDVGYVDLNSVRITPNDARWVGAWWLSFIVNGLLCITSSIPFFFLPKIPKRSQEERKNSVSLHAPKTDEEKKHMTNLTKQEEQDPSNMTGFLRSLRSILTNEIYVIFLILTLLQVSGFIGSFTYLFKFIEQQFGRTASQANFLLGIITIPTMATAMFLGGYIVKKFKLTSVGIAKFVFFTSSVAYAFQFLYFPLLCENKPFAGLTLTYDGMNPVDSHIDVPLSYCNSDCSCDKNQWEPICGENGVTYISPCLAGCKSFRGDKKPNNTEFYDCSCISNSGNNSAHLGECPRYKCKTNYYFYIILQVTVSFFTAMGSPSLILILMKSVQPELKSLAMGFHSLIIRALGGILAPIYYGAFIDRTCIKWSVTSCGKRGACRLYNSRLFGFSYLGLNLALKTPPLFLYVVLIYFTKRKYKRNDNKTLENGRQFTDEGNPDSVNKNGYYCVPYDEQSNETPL

[3] = target: T3, mOATP1B2 (Mus musculus, UniProt Q9JJL3); assay: cis-inhibition of mOATP1B2-mediated E1S or TCA uptake in HEK293 cells; assay type: cell-based
T3 construct: The full-length mOATP1B2 and rOATP1B2 consist of 689 and 678 amino acids
T3 sequence (Q9JJL3 1-689): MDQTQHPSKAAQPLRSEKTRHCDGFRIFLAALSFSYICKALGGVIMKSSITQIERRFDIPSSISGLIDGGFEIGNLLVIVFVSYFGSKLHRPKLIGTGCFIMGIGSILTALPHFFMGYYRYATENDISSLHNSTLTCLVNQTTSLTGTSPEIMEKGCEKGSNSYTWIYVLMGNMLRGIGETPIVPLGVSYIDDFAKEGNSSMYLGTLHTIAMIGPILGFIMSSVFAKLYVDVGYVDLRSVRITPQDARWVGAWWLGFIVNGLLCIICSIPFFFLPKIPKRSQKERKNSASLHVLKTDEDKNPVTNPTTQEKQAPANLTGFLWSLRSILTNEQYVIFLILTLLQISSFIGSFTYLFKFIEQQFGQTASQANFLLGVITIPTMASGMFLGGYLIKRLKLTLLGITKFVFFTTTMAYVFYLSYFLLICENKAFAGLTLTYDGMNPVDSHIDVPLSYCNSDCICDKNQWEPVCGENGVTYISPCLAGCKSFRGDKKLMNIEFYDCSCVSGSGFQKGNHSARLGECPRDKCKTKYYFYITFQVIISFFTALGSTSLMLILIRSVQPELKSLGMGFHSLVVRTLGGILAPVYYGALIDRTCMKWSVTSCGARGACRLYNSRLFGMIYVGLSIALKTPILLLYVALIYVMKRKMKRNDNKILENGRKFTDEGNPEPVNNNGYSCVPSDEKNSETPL
Protocol: Inhibition experiments with mOATP1B2 and rOATP2B1 were carried out in triplicate as cis-inhibition. […] Inhibitory effects were calculated as a percentage of the net-uptake rates. […] The means ± average deviation (AD, for N = 2) were calculated from two experiments on two different days. The significance as a p-value was calculated using Student's t-test in Microsoft Excel.

[4] = target: T4, hOATP1B3 (Homo sapiens, UniProt Q9NPD5); assay: cis-inhibition of hOATP1B3-mediated TCA uptake in HEK293 cells; assay type: cell-based; set-up: expressed in transfected cells; host or cells: HEK-293, stably transfected; conditions: 10 µM drug, 1 µM TCA, 10 min
T4 sequence (Q9NPD5 1-702): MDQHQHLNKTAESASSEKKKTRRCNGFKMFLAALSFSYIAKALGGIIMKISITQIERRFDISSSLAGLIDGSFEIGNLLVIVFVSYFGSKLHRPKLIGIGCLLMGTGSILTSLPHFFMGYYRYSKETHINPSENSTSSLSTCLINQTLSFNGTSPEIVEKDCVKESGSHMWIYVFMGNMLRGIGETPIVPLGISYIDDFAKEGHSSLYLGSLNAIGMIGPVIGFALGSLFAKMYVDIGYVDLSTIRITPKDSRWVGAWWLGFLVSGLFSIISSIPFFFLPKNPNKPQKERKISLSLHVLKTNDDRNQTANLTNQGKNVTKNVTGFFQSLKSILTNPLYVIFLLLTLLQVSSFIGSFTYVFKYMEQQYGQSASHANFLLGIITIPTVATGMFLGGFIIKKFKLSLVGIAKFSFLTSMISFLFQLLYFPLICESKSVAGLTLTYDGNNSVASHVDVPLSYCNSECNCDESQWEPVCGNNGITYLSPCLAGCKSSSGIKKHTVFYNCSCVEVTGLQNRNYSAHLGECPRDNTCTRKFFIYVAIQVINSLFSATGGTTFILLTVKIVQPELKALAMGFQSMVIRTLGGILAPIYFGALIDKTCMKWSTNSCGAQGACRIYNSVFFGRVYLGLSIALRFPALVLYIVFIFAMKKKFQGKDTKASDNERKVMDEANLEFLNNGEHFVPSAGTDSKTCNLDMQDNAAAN
Protocol: as §1, §2

[5] = substrate: C[C@H](CCC(=O)NCCS(=O)(=O)O)[C@H]1CC[C@H]2[C@@H]3[C@H](O)C[C@@H]4C[C@H](O)CC[C@]4(C)[C@H]3C[C@H](O)[C@]12C; assay: cells, lysate or membranes; conditions: 1 min, 37 °C, increasing unlabeled substrate with 10 nM 3H-substrate, pH 7.4
[6] = 10 µM drug, substrates E1S and TCA not separated
[7] = HEK293, 10 µM drug, 1 µM [3H]-E1S, 1 min, read-out: Inhibitory effect on rOATP1B2-mediated E1S uptake
[8] = HEK293, read-out: Inhibitory effect on rOATP1B2-mediated TCA uptake, 10 µM drug, 1 µM [3H]-TCA, 1 min
[9] = HEK293, 10 µM drug, 1 µM [3H]-E1S, 1 min, read-out: Inhibitory effect on mOATP1B2-mediated E1S uptake
[10] = HEK293, read-out: Inhibitory effect on mOATP1B2-mediated TCA uptake, 10 µM drug, 1 µM [3H]-TCA, 1 min

Molecule: CCCc1nc(C(C)(C)O)c(C(=O)O)n1Cc1ccc(-c2ccccc2-c2nnn[nH]2)cc1 [Olmesartan, olmesartan]
- Inhibitory effect on hOATP1B1-mediated E1S uptake [1]: 18%
- Inhibitory effect on hOATP1B1-mediated E1S uptake ([1]; listed as olmesartan): less than 50%
- Inhibitory effect on rOATP1B2-mediated substrate uptake (summary over E1S and TCA) [2, 6]: below 50%
- inhibition at 10 µM [2, 7]: 27%
- inhibition at 10 µM [2, 8]: 32%
- Inhibitory effect on mOATP1B2-mediated substrate uptake (summary over E1S and TCA) [3, 6]: below 50%
- inhibition at 10 µM [3, 9]: 18%
- inhibition at 10 µM [3, 10]: 25%
- Inhibitory effect on hOATP1B3-mediated TCA uptake [4]: 29%
- Inhibitory effect on hOATP1B3-mediated TCA uptake ([4]; listed as olmesartan): less than 50%

Molecule: CC(C)c1nc(CN(C)C(=O)N[C@H](C(=O)N[C@@H](Cc2ccccc2)C[C@H](O)[C@H](Cc2ccccc2)NC(=O)OCc2cncs2)C(C)C)cs1 [Ritonavir, ritonavir]
- inhibition at 10 µM [2, 7]: 84%
- inhibition at 10 µM [2, 8]: 78%
- inhibition at 10 µM ([2]; HEK293, read-out: Inhibitory effect on rOATP1B2-mediated substrate uptake (summary over E1S and TCA), 10 µM drug, substrates E1S and TCA not separated): > 70%
- inhibition at 10 µM [3, 9]: 74%
- inhibition at 10 µM [3, 10]: 71%

B1: mOATP1B2 (Mus musculus) (protein)
chain: MDQTQHPSKAAQPLRSEKTRHCDGFRIFLAALSFSYICKALGGVIMKSSITQIERRFDIPSSISGLIDGGFEIGNLLVIVFVSYFGSKLHRPKLIGTGCFIMGIGSILTALPHFFMGYYRYATENDISSLHNSTLTCLVNQTTSLTGTSPEIMEKGCEKGSNSYTWIYVLMGNMLRGIGETPIVPLGVSYIDDFAKEGNSSMYLGTLHTIAMIGPILGFIMSSVFAKLYVDVGYVDLRSVRITPQDARWVGAWWLGFIVNGLLCIICSIPFFFLPKIPKRSQKERKNSASLHVLKTDEDKNPVTNPTTQEKQAPANLTGFLWSLRSILTNEQYVIFLILTLLQISSFIGSFTYLFKFIEQQFGQTASQANFLLGVITIPTMASGMFLGGYLIKRLKLTLLGITKFVFFTTTMAYVFYLSYFLLICENKAFAGLTLTYDGMNPVDSHIDVPLSYCNSDCICDKNQWEPVCGENGVTYISPCLAGCKSFRGDKKLMNIEFYDCSCVSGSGFQKGNHSARLGECPRDKCKTKYYFYITFQVIISFFTALGSTSLMLILIRSVQPELKSLGMGFHSLVVRTLGGILAPVYYGALIDRTCMKWSVTSCGARGACRLYNSRLFGMIYVGLSIALKTPILLLYVALIYVMKRKMKRNDNKILENGRKFTDEGNPEPVNNNGYSCVPSDEKNSETPL
- Km ([5]; other: mOATP1B2-HEK293, net uptake): 73 ± 11 µM

B2: rOATP1B2 (Rattus norvegicus) (protein)
chain: MDHTQQSRKAAEAQPSRSKQTRFCDGFKLFLAALSFSYICKALGGVVMKSSITQIERRFDIPSSISGLIDGGFEIGNLLVIVFVSYFGSKLHRPKLIGIGCFIMGIGSILTALPHFFMGYYKYAKENDIGSLGNSTLTCFINQMTSPTGPSPEIVEKGCEKGLKSHMWIYVLMGNMLRGIGETPIVPLGISYLDDFAKEGHTSMHLGTLHTIAMIGPILGFIMSSVFAKIYVDVGYVDLNSVRITPNDARWVGAWWLSFIVNGLLCITSSIPFFFLPKIPKRSQEERKNSVSLHAPKTDEEKKHMTNLTKQEEQDPSNMTGFLRSLRSILTNEIYVIFLILTLLQVSGFIGSFTYLFKFIEQQFGRTASQANFLLGIITIPTMATAMFLGGYIVKKFKLTSVGIAKFVFFTSSVAYAFQFLYFPLLCENKPFAGLTLTYDGMNPVDSHIDVPLSYCNSDCSCDKNQWEPICGENGVTYISPCLAGCKSFRGDKKPNNTEFYDCSCISNSGNNSAHLGECPRYKCKTNYYFYIILQVTVSFFTAMGSPSLILILMKSVQPELKSLAMGFHSLIIRALGGILAPIYYGAFIDRTCIKWSVTSCGKRGACRLYNSRLFGFSYLGLNLALKTPPLFLYVVLIYFTKRKYKRNDNKTLENGRQFTDEGNPDSVNKNGYYCVPYDEQSNETPL
- Km ([5]; other: rOATP1B2-HEK293, net uptake): 16 ± 3 µM
